Test [1] has as its system NMDA-induced cell death in primary neuronal cultures of rat hippocampal formation. Nature of the test: Trypan blue exclusion, NMDA-induced cell death (excitotoxicity) in primary hippocampal cultures. It is filed as cell-based. An excerpt:
Trypan blue exclusion was used to evaluate the ability of derivatives of pregnenolone sulfate to inhibit NMDA-induced cell death in primary neuronal cultures of rat hippocampal formation.
Mixed neuronal and glial cultures of hippocampal tissue were derived from fetal rats on day 18 of embryonic development and were maintained in culture for 16 to 24 days (Brewer, G. J., Brain Res., 494: 65-74 (1989)). Care for the animals used in this study was in accordance with institutional guidelines. Hippocampal tissue from Sprague-Dawley rat pups was collected immediately following removal from dams sacrificed with CO2 on embryonic day 18. Cells were dissociated by trituration in Ca^2 +/Mg^2 + free Hank's basic salt solution supplemented with 4.2 mM bicarbonate, 1 mM sodium pyruvate, 20 mM HEPES, 3 mg/ml BSA, and pelleted by centrifugation (900 rpm, 3 min). The resulting pellet was suspended in DMEM supplemented with 2.4 mg/ml BSA, 26.5 mM sodium bicarbonate, 1 mM sodium pyruvate, 20 mM HEPES, 10% FBS, 100 units/ml penicillin, 100 μg/ml streptomycin, and a modification of Brewers B16 defined components (with […] vitamin B12 and without catalase, glutathione, and superoxide dismutase) (Pike, C. J., et al., Neurosci. 13:1676-87 (1993)) and plated onto poly-L-lysine coated 24 well culture dishes (Nunclon) at a density of 15,000 cells/cm^2 and were maintained in a humidified incubator in 5% CO2 /95% air at 37° C. After 5 days in vitro, nonneuronal cell division was inhibited by exposure to 2×10^-6 M cytosine arabinoside for 48 hrs. Cells were subsequently maintained in medium identical to that used for platting without BSA or FBS.
The number of living neurons was determined by assessing the ability of cells to exclude trypan blue 16 hrs. after the addition of drug solutions to the medium of individual culture wells (Dawson, V. L., et al., Proc. Natl. Acad. Sci. USA, 88:6368-6371 (1991)). Drugs were introduced to cultures in 100 μl of conditioned media, collected from experimental cultures just prior to treatment, to a final volume of 0.5 ml. NMDA was dissolved in DMEM at concentrations of 0-5 mM so that addition of 10 μl yielded final concentrations of 0-100 μM. MK-801, a positive control, was dissolved in DMEM at a concentration of 1 mM so that addition of 5 μl yielded a final concentration of 10 μM. Control cultures were exposed only to an equivalent volume of DMEM, and concentration of DMSO (0.5%). The concentrations of the pregnenolone sulfate derivatives were as follows: 10-100 μM 5β3αS, 100 μM 5β3α hemisuccinate and 200 μM 17β-estradiol hemisuccinate.
After exposure to drugs, the medium was replaced by 0.1 M sodium phosphate buffer/0.4% trypan blue. Cell death was assessed by counting the number of trypan blue positive and negative neurons in five high power fields per culture well with an inverted phase contrast microscope using both bright field and phase settings. Cell death is expressed as the ratio of the number of trypan blue positive to total number of cells counted in each well×100 (percent cell death).

Test [2] has as its system mice. Nature of the test: Behavioral observational assessment after i.p. steroid. It is filed as in vivo. The conditions noted are these: 25 mg/kg i.p.; for behavioral assessment: 30 min. after injection. How it is done:
To test for behavioral effects, PS, 5β3αS, 5β3αHS, βE2 (17)HS, or βE2 (3)HS (7 mg/ml in DMSO) was administered to mice i.p. at 25 mg/kg (5 animals per drug group). Behavioral assessments were made 30 min. after injection using a comprehensive observational assessment of motor-affective responses, sensory-motor responses, posture, muscle tone, equilibration, CNS excitation, and autonomic function (Irwin, R. P., et al., NeuroSci. Lett., 141:30-44 (1968)). […] The latency to loss of righting reflex was 2.5±0.5 min., and the latency to regain the righting reflex was 83±11 min. The rapidity of onset argues that 5β3αHS readily crosses the blood brain barrier.

Test [3] has as its system glutamate receptor-mediated spontaneous EPSCs in rat hippocampal neurons. Nature of the test: Spontaneous excitatory postsynaptic currents (EPSCs), whole-cell recording in cultured hippocampal neurons. The class given is cell-based. The conditions noted are these: for effect on spontaneous EPSCs: cultures of rat hippocampal neurons; for EC50: voltage-clamped at -70 mV, read-out: EC50 of EPSC potentiation. How it is done: Primary cultures of hippocampal neurons were prepared from embryonic day 18 rats. Cultured neurons were used in experiments 2-3 weeks after plating.
Spontaneous excitatory postsynaptic currents were recorded by the whole-cell variant of the patch clamp technique. The pipet solution usually contained (in mM) KCl 10, EGTA 11, sodium gluconate 3, potassium gluconate 140 and HEPES 10, adjusted to pH 7.2 with KOH. The bath solution contained (in mM) NaCl 150, KCl 4, CaCl2 1, and HEPES 10, adjusted to pH 7.2 with NaOH. Because NMDA-induced currents are subject to voltage-dependent block by extracellular Mg^2+, no magnesium salts were added to the bath solution. All records were made with the cell membrane potential clamped at -70 mV, which is very close to the Cl- equilibrium potential. Therefore, IPSCs are not expected to be observed and spontaneous activity should consist of EPSCs. The complete blockage of spontaneous activity by the co-application of the NMDA receptor antagonist APV and the non-NMDA receptor antagonist DNQX argues that the observed spontaneous activity is glutamate receptor-mediated.
Drug solutions were applied to single neurons by pressure ejection (15 psi) from 7-barrel pipets (tip opening ~3-5 μm) positioned ~50 μm from the neuronal soma. In all experiments, neurons received a 40s application of either steroid or steroid plus antagonist(s), followed by 10-20s pulse of external buffer solution.

Entries after “also recorded” stand apart in the source; their conditions may differ. Counter-ions that a name gives are not always drawn. Like-named read-outs stand apart in the source and are kept apart here.

With `CC(=O)[C@H]1CC[C@H]2[C@@H]3CC[C@@H]4C[C@H](OC(=O)CCC(=O)O)CC[C@]4(C)[C@H]3CC[C@]12C` [5β3αHS, 3α-hydroxy-5β-pregnan-20-one hemisuccinate], in test [1] (100 μM 5β3α hemisuccinate), the “inhibition of the cell death induced by chronic NMDA” value worked out at 50% and the “inhibition of the cell death produced by short term exposure to NMDA” value is 46%. Also, in test [2], the “latency to loss of righting reflex” value is 2.5 ± 0.5 min, the “latency to regain the righting reflex” value was 83 ± 11 min and the “behavioral assessment” value is reported as “lost virtually all muscle tone”.

With `CC(=O)[C@H]1CC[C@H]2[C@@H]3CC[C@@H]4C[C@H](OS(=O)(=O)O)CC[C@]4(C)[C@H]3CC[C@]12C` [5β3αS, 3α-hydroxy-5β-pregnan-20-one sulfate], the “effect on spontaneous EPSCs” value in test [3] is listed as “inhibits spontaneous EPSCs”. Also, in test [1] (10-100 μM 5β3αS, FIG. 5), the “protection against chronic NMDA-induced cell death” value is “ineffective against chronic NMDA-induced cell death” and the “protection against short term NMDA excitotoxicity” value is recorded as “protects against short term NMDA excitotoxicity”. In addition, the “block of cell death due to NMDA” value in test [1] (steroid present during the exposure only) is reported as “completely blocked the cell death”. In addition, in test [1] (steroid present only after the exposure), the “block of cell death due to NMDA” value is given as “considerably less effective”. Besides, the “behavioral assessment” value in test [2] is given as “very minor behavioral impairment”.

Take `CC(=O)C1CCC2C3CC=C4CC(OS(=O)(=O)O)CCC4(C)C3CCC12C` (stereo not shown) [PS, pregnenolone sulfate]: the “potentiation of EPSCs with NMDA receptors blocked” value in test [3] (100 μM steroid, APV (40 μM)) is reported as “reduced”. In test [3], the “effect on spontaneous EPSCs” value is “potentiates spontaneous EPSCs; also recorded: potentiates spontaneous excitatory post-synaptic currents” and the EC50 (as a rule, the midpoint of the concentration-response curve) was determined as 5.6 µM. Besides, the EC50 in test [3] (listed as pregnenolone sulfate) turned out to be 11.9 µM. Further, the “behavioral assessment” value in test [2] is listed as “unaffected except for a single decreased score on locomotor activity”.

(Values after US6083941A, “Inhibition of NMDA receptor activity by pregnenolone sulfate derivatives” (Trustees of Boston University, priority 1998, dated 2000).)
